Patent publication US10662100B2, “Chlorination-UV process for decomposition and detoxification of microcystin-LR” (priority 2016, dated 2020)
Several values for one entry are separate records, joined by “and”; a condition that tells them apart may be missing. Equal values may be shown once. Read-outs that look alike come from different tables or passages of the source. Starred links: 1 amine or outer side, 2 acyl side, 3 side chain; linkers in the order of their positions; H or OH if unused. Positions of bridges follow the written chain, without caps; N, C: chain ends. Non-standard residues stand in square brackets, D forms with d. Residues, ends and D or L forms follow the SMILES beside them. Adda = CO[C@@H](Cc1ccccc1)[C@@H](C)/C=C(C)/C=C/[C@H](N[*:1])[C@H](C)C(=O)[*:2]; dAsp(3S-Me) = C[C@H](C(=O)[*:3])[C@@H](N[*:1])C(=O)[*:2]; d(γGlu) = O=C(O)[C@@H](CCC(=O)[*:2])N[*:1]; NMeDha = C=C(NC)C(=O)O

Tests used:
[1] = Chlorination of MC-LR, Total MC-LR by HPLC; format: physicochemical; conditions: pH 7.78
Method: (§1) Free chlorine and MC-LR solutions were freshly prepared before each experiment. The initial MC-LR concentration was 2.00×10^−6 mol/L (2.00 mg/L). The pH of MC-LR solutions before addition of chlorine was 7.78. Initial MC-LR decomposition experiments were conducted in unbuffered solutions in order to mitigate against participation of buffers and other inorganic ions in the reactions; pH measurements were not conducted after initiation of the reactions due to limited reaction volumes. In experiments that were designed to examine the effects of pH on MC-LR behavior, 10 mM phosphate buffer was added into MC-LR solution. The pH of solution was adjusted to 6.5, 7.5, and 8.5 by addition of 50 mM sulfuric acid or 100 mM sodium hydroxide.
(§2) […]. […] Pre-chlorinated samples were then collected in headspace-free, gas-tight containers for subsequent UV irradiation at a characteristic wavelength of 254 nm using a flat-plate collimated beam.
(§3) A high-performance liquid chromatography (HPLC) system (Surveyor, Thermo Scientific, FL, U.S.) equipped with an Acclaim PepMap100 C18 column (250 mm×1.0 mm I.D., 5 μm particle size) was used to measure MC-LR concentration (Merel et al., (2009) Chemosphere 74: 832-839). The HPLC mobile phase was CH3CN/H2O/TFA (60:40:0.1). Sample injection volumes were 20 μL with a flow rate of 1.0 mL/min. Detection was performed using a photodiode array at 238 nm. […]

[2] = UV254 photolysis and chlorine/UV process for MC-LR decomposition; format: physicochemical
Method: as §1, §2
Incident UV254 irradiance was 1.00×10^−4 W/cm^2, as measured by a calibrated radiometer (IL1700, International Light Technologies, Peabody, Mass., U.S.). UV254 doses applied in the experiments ranged from 0 to 720 mJ/cm^2 for exposure times ranging from 0 to 120 min. The actual UV254 doses delivered to the samples would have been slightly lower than these values because of the effects of reflection and absorbance, which were not accounted for. The collimated beam system used in these experiments has been described previously. Water samples were collected periodically for determination of MC-LR concentration and cytotoxicity, as described below. All experiments were conducted in triplicate and the values were expressed as mean±standard deviation (SD) from the replicate measurements.
as §3, with “(60:40:0.1).” for “(60:40:0.1). Sample injection volumes were 20 μL with a flow rate of 1.0 mL/min. Detection was performed using a photodiode array at 238 nm.”

[3] = tested on: Hep3B cells; format: cell-based, human
[4] = tested on: NIH3T3 cells; format: cell-based, mouse
[5] = cited from earlier work
[6] = 254 nm; cited from earlier work

C=C1C(=O)N[C@H](C)C(=O)N[C@@H](CC(C)C)C(=O)N[C@@H](C(=O)O)[C@H](C)C(=O)N[C@@H](CCCNC(=N)N)C(=O)N[C@@H](/C=C/C(C)=C/[C@H](C)[C@H](Cc2ccccc2)OC)[C@H](C)C(=O)N[C@@H](C(=O)O)CCC(=O)N1C [MC-LR] (R[Adda][d(γGlu)][NMeDha][dA]L[dAsp(3S-Me)]-OH; lactam N-7)
apparent second-order rate constant for chlorination of MC-LR [1]: 44.5 M⁻¹ s⁻¹ | concentration of MC-LR over time [1]: remained essentially constant | MC-LR decomposition ([2]; pH 6.5): 64% | photodecay constant (pseudo first-order) ([2]; pH 7.78): 0.000146 s⁻¹ and 0.000169 s⁻¹ and 0.000179 s⁻¹ and 0.000223 s⁻¹ | MC-LR decomposition ([2]; pH 8.5): 83% | change of cell viability resulting from UV254 exposure alone [3]: modest increase | decrease of cell viability [3]: up to 89% | viability of Hep3B cells [3]: roughly 50% | relative cell viability of Hep3B ([3]; pH 6.5): 60% | relative cell viability of Hep3B ([3]; pH 8.5): roughly 80% | decrease of cell viability [4]: up to 76% | apparent second-order rate constant for chlorination of MC-LR ([5]; pH 6.1): 127.8 M⁻¹ s⁻¹ | apparent second-order rate constant for chlorination of MC-LR ([5]; pH 7): 91.5 M⁻¹ s⁻¹ | apparent second-order rate constant for chlorination of MC-LR ([5]; pH 8): 33.1 M⁻¹ s⁻¹

CN1CC(=O)NC1=N [creatinine]
quantum yield Φ254 for photodegradation [6]: 0.011±0.002 mol/E

N-chloro-creatinine
molar absorptivity ε254 [6]: 3911 M⁻¹ cm⁻¹ | quantum yield Φ254 for photodegradation [6]: 0.144±0.011 mol/E
